Patent US7220587B2 (priority 2001, dated 2007)

Legend:
[1] = test system: Wild-type Landsberg seedlings; test: taxol treatment of dark-grown wild-type seedlings; format: in vivo, Arabidopsis thaliana; settings: 10 days in the dark
Text: (§1) The role of ethylene in the reduction of hypocotyl and root elongation has not yet been elucidated. One possibility relates to the theory that cortical microtubules associated with the plasma membrane may direct the cellulose synthase complex that is responsible for cell wall deposition. The drug taxol acts to stabilize microtubules by inhibiting microtubule depolymerization (Schiff and Horwitz 1981) and may inhibit the shift in cortical microtubules upon ethylene treatment,(Heinstein and Chang 1994). To determine if taxol could affect the ethylene insensitivity phenotype of ein6/een mutants, wild-type and ein6/een mutants were given a 10 day taxol treatment in the dark (Example 12).
(§2) Wild-type Landsberg seedlings or ein6/een mutant seedlings were grown in the presence of either 0 μM, 0.1 μM, or 1 μM taxol for 10 days in the dark, following the method of Roman and Ecker (Phil. Trans. R. Soc. Lond. B. 350: 75–81, 1995, which is herein incorporated by reference in its entirety). […] Hypocotyl cells of the taxol-treated tissue appeared shorter and rounder than wild-type cells. […] From these observations, it has been concluded that the ein6/een double mutation, (or possibly the een single mutation) is responsible for the taxol sensitivity phenotype.

[2] = test system: ein6/een mutant seedlings; test: taxol treatment of dark-grown ein6/een double mutant seedlings; format: in vivo, Arabidopsis thaliana
Text: as §1, §2

## CC(=O)O[C@H]1C(=O)[C@@]2(C)[C@H]([C@H](OC(=O)c3ccccc3)[C@]3(O)C[C@H](OC(=O)[C@H](O)[C@@H](NC(=O)c4ccccc4)c4ccccc4)C(C)=C1C3(C)C)[C@]1(OC(C)=O)CO[C@@H]1C[C@@H]2O [taxol]
[1]; 0.1 μM taxol
  seedling size compared to untreated seedlings: did not have an altered size
[1]; 1 μM taxol
  effect on seedling elongation: inhibition of elongation
[2]; 0.1 μM taxol, 10 days in the dark
  seedling phenotype (length): shortened phenotype
[2]; 1 μM taxol, 10 days in the dark
  seedling length compared to non-treated ein6/een mutant seedlings: significantly shorter
[2]; low levels (0.1 μM) of taxol, 10 day treatment in the dark
  sensitivity of mutants to taxol: especially sensitive
